Reference: publication PMC12426469, “A Covalent and Modulable Inhibitor of the Tubulin‐Microtubule System: Insights Into the Mechanism of Cacalol” (Chemical Biology & Drug Design, 2025)

Target: T1, α-tubulin (Sus scrofa, UniProt P02550)
T1 construct: gene TUBA1A; purified porcine brain α,β-tubulin; modified peptide 340SIQFVDWCPTGFK352 of α-tubulin; with β-tubulin
Experiment: LC-MS of trypsin-digested tubulin showing covalent adduct; IC50 from in vitro tubulin polymerization assay
Assay type: biochemical

T1 sequence (P02550 whole entry): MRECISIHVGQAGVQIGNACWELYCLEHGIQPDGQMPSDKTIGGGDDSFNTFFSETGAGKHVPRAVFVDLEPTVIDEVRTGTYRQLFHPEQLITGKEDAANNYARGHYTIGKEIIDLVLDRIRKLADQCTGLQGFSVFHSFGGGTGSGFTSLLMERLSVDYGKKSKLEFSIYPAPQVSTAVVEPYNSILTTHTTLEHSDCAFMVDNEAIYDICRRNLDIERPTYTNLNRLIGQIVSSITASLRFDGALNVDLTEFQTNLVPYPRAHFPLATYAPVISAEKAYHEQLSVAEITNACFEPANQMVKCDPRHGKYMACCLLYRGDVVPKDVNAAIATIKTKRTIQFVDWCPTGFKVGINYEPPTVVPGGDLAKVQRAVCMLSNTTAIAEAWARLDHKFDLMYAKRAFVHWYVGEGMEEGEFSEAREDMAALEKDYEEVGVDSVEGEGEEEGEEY
T1 sequence (P02554 whole entry partner): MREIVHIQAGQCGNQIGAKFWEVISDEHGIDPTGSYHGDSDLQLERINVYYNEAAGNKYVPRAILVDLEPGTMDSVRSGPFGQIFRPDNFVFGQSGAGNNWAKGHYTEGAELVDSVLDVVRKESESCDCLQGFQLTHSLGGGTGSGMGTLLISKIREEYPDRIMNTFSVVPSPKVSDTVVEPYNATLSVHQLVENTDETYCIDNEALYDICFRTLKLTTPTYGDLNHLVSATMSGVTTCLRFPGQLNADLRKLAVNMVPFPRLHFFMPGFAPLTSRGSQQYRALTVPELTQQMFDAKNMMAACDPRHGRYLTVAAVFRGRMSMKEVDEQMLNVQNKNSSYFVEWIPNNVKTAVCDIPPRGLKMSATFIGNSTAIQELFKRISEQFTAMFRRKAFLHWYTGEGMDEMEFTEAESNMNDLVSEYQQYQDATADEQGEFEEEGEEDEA

SMILES: C=C1C2=C(CCC[C@@H]2C)C(=O)c2occ(C)c21 [compound 2, (S)‐3,5‐Dimethyl‐4‐Methylene‐5,6,7,8‐Tetrahydronaphtho[2,3‐b]Furan‐9(4H )‐One]
- IC50: 43 µM
